Measured values from patent publication US20030220521A1, “Renal-selective prodrugs for control of renal sympathetic nerve activity in the treatment of hypertension” (G.D. Searle & Co., priority 1989, published 2003).
Where two headings read alike, the source gives them in different places.

Columns and labels:
[1] = tested on: SHR; test: Assay VIII: chronic 5 day i.v. infusion, mean arterial pressure in SHR; format: in vivo, rat; conditions: for chronic effect on mean arterial pressure compared to vehicle: SHR, 5 day infusion, Ex. #859 5 mg/hr, fusaric acid 2.5 mg/hr
Method: The Ex. #859 conjugate and saline vehicle were infused continuously for 5 days in SHR. Mean arterial pressure was measured (Gould Chart Recorder, model 3800; Statham P23Db pressure transducer) via an indwelling femoral artery catheter between 10:00 a.m. and 2:00 p.m. each day. The Ex. #859 conjugate (5 mg/hr), fusaric acid (2.5 mg/hr), and saline (100 μ1/hr) were infused via a jugular vein catheter with a Harvard infusion pump.

[2] = biological target: T1, dopamine beta-hydroxylase (DBH; EC 1.14.17.1) (Bos taurus, UniProt P15101); test: Assay V: in vitro DBH inhibition (norepinephrine production, HPLC); format: biochemical, bovine; conditions: for inhibition at 20 µM: read-out: % Inhibition of DBH; for inhibitory effect on dopamine-β-hydroxylase activity: tested at 20 uM
T1 construct: DBH, purified from bovine adrenals (Sigma); purchased Sigma; host or cells: bovine adrenals (tissue-purified)
T1 sequence (P15101 1-610): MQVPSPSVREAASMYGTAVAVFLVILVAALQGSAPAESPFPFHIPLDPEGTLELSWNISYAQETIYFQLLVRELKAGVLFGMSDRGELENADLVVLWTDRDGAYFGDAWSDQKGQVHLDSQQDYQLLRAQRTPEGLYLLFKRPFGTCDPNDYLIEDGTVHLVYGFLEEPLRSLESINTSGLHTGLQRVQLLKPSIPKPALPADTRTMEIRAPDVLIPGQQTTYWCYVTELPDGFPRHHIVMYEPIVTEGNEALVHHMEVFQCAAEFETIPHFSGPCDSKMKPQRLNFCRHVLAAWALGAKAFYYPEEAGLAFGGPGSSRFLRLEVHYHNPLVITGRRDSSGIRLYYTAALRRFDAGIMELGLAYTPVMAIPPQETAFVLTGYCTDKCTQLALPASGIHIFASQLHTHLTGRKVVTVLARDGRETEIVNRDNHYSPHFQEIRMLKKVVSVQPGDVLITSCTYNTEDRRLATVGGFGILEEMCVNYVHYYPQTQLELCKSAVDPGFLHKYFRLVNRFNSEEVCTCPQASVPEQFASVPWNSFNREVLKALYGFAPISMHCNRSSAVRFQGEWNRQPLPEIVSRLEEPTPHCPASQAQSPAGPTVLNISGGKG
Method: In order to characterize the relative potency of the Ex. #859 conjugate and its various potential metabolites as inhibitors of dopamine beta-hydroxylase (DBH; EC 1.14.17.1), the enzyme activity was determined in vitro in the presence of these compounds. DBH, purified from bovine adrenals (Sigma) was incubated at 37° C. in buffer containing 20 mM dopamine as substrate. The reaction was stopped by addition of 0.5 M perchloric acid. The precipitate was removed and the product of the enzyme activity (norepinephrine), contained in the clear supernatant, was analyzed by HPLC. The chromatographic separation used a reversed phase C-18 column run isocratically with 0.2 M ammonium acetate (pH 5.2) as the mobile phase. The amount of norepinephrine produced by the enzyme-substrate mixture was analyzed by measuring the peak intensity (absorbance) at 280 nm for norepinephrine as it was eluted at 4.5 minutes, using a photo-diode array detector. The result of adding either fusaric acid or the Ex. #859 conjugate to the incubate at various concentrations is shown in Table XXIII and FIG. 6. […] Fusaric acid and Ex. #859 and two more possible metabolites (Ex #858 and fusaric acid hydrazide) were tested at 20 uM.

[3] = tested on: Male mongrel dogs; test: Assay XII: acute i.v. effects on mean arterial pressure and renal blood flow in anesthetized dogs; format: in vivo, dog
Method: This experiment was run to determine the renal selectivity of conjugate of the invention in dogs. Male mongrel dogs (15-20 kg/n=8; Antech, Inc., Barnhard, Mo.) were anesthetized with sodium pentobarbital (30 mg/kg as i.v. bolus, and 4-6 mg/kg/hr infusion) and catheters were placed in the femoral veins for compound injection or pentobarbital infusion, and the femoral artery for arterial pressure recording. An electromagnetic flow probe (Carolina Medical Electronics, Inc., King, N.C.) was placed around the left renal artery for measurement of renal blood flow. Renal blood flow and arterial pressure were recorded on a Gould chart recorder. After surgery, 20-30 minutes were allowed for variables to stabilize. […] Variables were monitored for the next three hours. Results are shown in Table XXXIV and FIGS. 14 and 15.

[4] = 7 mg/kg, 1 hour after injection
[5] = 7 mg/kg, 2 hour after injection
[6] = 7 mg/kg, 3 hour after injection
[7] = 20 mg/kg i.v., 1 hour after injection
[8] = 20 mg/kg i.v., 2 hour after injection
[9] = 20 mg/kg i.v., 3 hour after injection
[10] = 60 mg/kg i.v., 1 hour after injection
[11] = 60 mg/kg i.v., 2 hour after injection
[12] = 60 mg/kg i.v., 3 hour after injection

SMILES: CCCCc1ccc(C(=O)NNC(=O)CCC(NC(C)=O)C(=O)O)nc1 [Ex. #859, N-acetyl-L-glutamic acid, 5-[(5-butyl-2-pyridinyl)-carbonyl]hydrazide]
- MAP (SE) ([1]; 5 mg/hr i.v. infusion, day 1): 122 ± 9 mm Hg
- MAP (SE) ([1]; 5 mg/hr i.v. infusion, day 2): 115 ± 9 mm Hg
- MAP (SE) ([1]; 5 mg/hr i.v. infusion, day 3): 119 ± 11 mm Hg
- MAP (SE) ([1]; 5 mg/hr i.v. infusion, day 4): 121 ± 7 mm Hg
- MAP (SE) ([1]; 5 mg/hr i.v. infusion, day 5): 115 ± 8 mm Hg
- MAP (SE) ([1]; 5 mg/hr i.v. infusion, day zero): 146 ± 5 mm Hg
- chronic effect on mean arterial pressure compared to vehicle [1]: lowered mean arterial pressure similarly
- Norepinephrine Peak Intensity (Abs 280) in the presence of compound ([2]; compound 0.10 μM): 0.51 Abs 280
- Norepinephrine Peak Intensity (Abs 280) in the presence of compound ([2]; compound 1.00 μM): 0.52 Abs 280
- Norepinephrine Peak Intensity (Abs 280) in the presence of compound ([2]; compound 10.00 μM): 0.61 Abs 280
- Norepinephrine Peak Intensity (Abs 280) in the presence of compound ([2]; compound 100.00 μM): 0.53 Abs 280
- DBH inhibitory activity ([2]; concentrations up to 100 uM): no appreciable activity
- inhibition at 20 µM ([2]; test compound 20 μM): 1.5%
- inhibitory effect on dopamine-β-hydroxylase activity [2]: Only fusaric acid had significant inhibitory effects
- Mean arterial pressure [3, 4]: 116 ± 5 mmHg
- Renal Blood Flow [3, 4]: 92 ± 5 mL/min
- Mean arterial pressure [3, 5]: 113 ± 4 mmHg
- Renal Blood Flow [3, 5]: 111 ± 14 mL/min
- Mean arterial pressure [3, 6]: 114 ± 4 mmHg
- Renal Blood Flow [3, 6]: 118 ± 23 mL/min
- Mean arterial pressure ([3]; 7 mg/kg, time zero): 114 ± 6 mmHg
- Renal Blood Flow ([3]; 7 mg/kg, time zero): 92 ± 5 mL/min
- Mean arterial pressure [3, 7]: 124 ± 2 mmHg
- Renal Blood Flow [3, 7]: 107 ± 14 mL/min
- Mean arterial pressure [3, 8]: 125 ± 3 mmHg
- Renal Blood Flow [3, 8]: 122 ± 20 mL/min
- Mean arterial pressure [3, 9]: 125 ± 4 mmHg
- Renal Blood Flow [3, 9]: 126 ± 24 mL/min
- Mean arterial pressure ([3]; 20 mg/kg i.v., time zero): 120 ± 3 mmHg
- Renal Blood Flow ([3]; 20 mg/kg i.v., time zero): 88 ± 11 mL/min
- Mean arterial pressure [3, 10]: 124 ± 1 mmHg
- Renal Blood Flow [3, 10]: 145 ± 21 mL/min
- Mean arterial pressure [3, 11]: 126 ± 3 mmHg
- Renal Blood Flow [3, 11]: 168 ± 28 mL/min
- Mean arterial pressure [3, 12]: 120 ± 4 mmHg
- Renal Blood Flow [3, 12]: 176 ± 32 mL/min
- Mean arterial pressure ([3]; 60 mg/kg i.v., time zero): 123 ± 3 mmHg
- Renal Blood Flow ([3]; 60 mg/kg i.v., time zero): 131 ± 21 mL/min

SMILES: CCCCc1ccc(C(=O)O)nc1 [Fusaric Acid, 5-n-butylpicolinic acid]
- MAP (SE) ([1]; 2.5 mg/hr i.v. infusion, day 1): 118 ± 5 mm Hg
- MAP (SE) ([1]; 2.5 mg/hr i.v. infusion, day 2): 114 ± 7 mm Hg
- MAP (SE) ([1]; 2.5 mg/hr i.v. infusion, day 3): 122 ± 5 mm Hg
- MAP (SE) ([1]; 2.5 mg/hr i.v. infusion, day 4): 114 ± 6 mm Hg
- MAP (SE) ([1]; 2.5 mg/hr i.v. infusion, day 5): 114 ± 3 mm Hg
- MAP (SE) ([1]; 2.5 mg/hr i.v. infusion, day zero): 148 ± 6 mm Hg
- chronic effect on mean arterial pressure compared to vehicle [1]: lowered mean arterial pressure similarly
- concentration above which the enzyme is inhibited ([2]; 20 mM dopamine as substrate, 37° C): > 1 µM
- Norepinephrine Peak Intensity (Abs 280) in the presence of compound ([2]; compound 0.01 μM): 0.59 Abs 280
- Norepinephrine Peak Intensity (Abs 280) in the presence of compound ([2]; compound 0.10 μM): 0.59 Abs 280
- Norepinephrine Peak Intensity (Abs 280) in the presence of compound ([2]; compound 0.50 μM): 0.60 Abs 280
- Norepinephrine Peak Intensity (Abs 280) in the presence of compound ([2]; compound 1.00 μM): 0.53 Abs 280
- Norepinephrine Peak Intensity (Abs 280) in the presence of compound ([2]; compound 5.00 μM): 0.25 Abs 280
- Norepinephrine Peak Intensity (Abs 280) in the presence of compound ([2]; compound 10.00 μM): 0.14 Abs 280
- Norepinephrine Peak Intensity (Abs 280) in the presence of compound ([2]; compound 50.00 μM): 0.00 Abs 280
- Norepinephrine Peak Intensity (Abs 280) in the presence of compound ([2]; compound 100.00 μM): 0.00 Abs 280
- inhibition at 20 µM [2]: 75.4%
- inhibitory effect on dopamine-β-hydroxylase activity [2]: significant inhibitory effects
